Experimental data from ChEMBL document CHEMBL1158144, “Cacalol derivatives from Roldana angulifolia” (J Nat Prod, 2006).

How the values were obtained:
Assay type in all cases: functional, cell-based
K562 = assay: Cytotoxicity against human K-562 cells
SK-LU-1 = assay: Cytotoxicity against human SKLU1 cells
U-251 = assay: Cytotoxicity against human U251 cells
PC-3 = assay: Cytotoxicity against human PC-3 cells
MCF7 = assay: Cytotoxicity against human MCF7 cells
HCT-15 = assay: Cytotoxicity against human HCT-15 cells

Measured: IC50

COc1c2c3c(c4c(COC(C)=O)coc14)C(=O)OC[C@H]3CC=C2 [ANGULIFOLIDE]
> 10 µM: K562 | SK-LU-1 | U-251 | PC-3 | MCF7 | HCT-15

COc1c2c(c(C=O)c3c(CO)coc13)[C@@H](C)CC=C2
> 10 µM: K562 | SK-LU-1 | U-251 | PC-3 | MCF7 | HCT-15

COc1c2c(c(C=O)c3c(COC(C)=O)coc13)[C@@H](C)CC=C2
> 10 µM: K562 | SK-LU-1 | U-251 | PC-3 | MCF7 | HCT-15
